Test results reported in patent US10100001B2, “Adenylyl cyclase inhibitors for neuropathic and inflammatory pain” (Purdue Research Foundation, priority 2015, dated 2018).

Biological target: T1, AC1 (Homo sapiens, UniProt Q08828)
T1 construct: expressed in transfected cells
Assay: Inhibition of A23187-mediated (Ca2+-stimulated) cAMP accumulation in HEK cells stably expressing AC1
Type: cell-based
Settings: for inhibition at 4 µM / inhibition at 40 µM: HEK293, read-out: AC1 Inhibition Percentage; for inhibition at 4 µM: 4 μM compound; for inhibition at 40 µM: 40 μM compound; for IC50: HEK cells stably expressing AC1, inhibitors 30 min, then 3 μM A23187 with IBMX, average and S.E.M. of at least three independent experiments, read-out: IC50 for inhibition of the A23187-mediated cAMP response of AC1
Method: HEK cells stably expressing AC1 were treated with inhibitors for 30 min, and subsequently incubated with 3 μM A23187 in the presence of 2 mM IBMX. Data represent the average and S.E.M. of at least three independent experiments.
A23187 is a Ca2+ ionophore, which promotes Ca2+ binding to calmodulin in the cells and, subsequent stimulation of AC1.
HEK (human embryonic kidney) cells stably expressing human AC1, were cultured in Dubelcco's Modified Eagle Medium (Life Technologies, Grand Island, N.Y.) supplemented with 5% bovine calf serum (Hyclone, Logan, Utah), 5% fetal clone I (Hyclone, Logan, Utah), Antibiotic-Antimycotic (Life Technologies, Grand Island, N.Y.), and G418 (Invivogen, San Diego, Calif.). The cells were grown to confluency in 15 cm disses, harvested using Cell Dissociation Buffer (Life Technologies, Grand Island, N.Y.), and resuspended in 4 ml of fetal bovine serum (Hyclone, Logan, Utah) containing 10% dimethyl sulfoxide (Sigma-Aldrich, St. Louis, Mo.). 1 ml of cell suspension was added to cryovials that were incubated overnight at −80° C. in a CoolCell device (BioCision, Larkspur, Calif.) for cryopreservation. On the following day, cryovials were stored in liquid N2 until the assay day.
Cryopreserved HEK-AC1 cells were thawed in a 37° C. water-bath, resuspended in 10 ml optiMEM (Life Technologies, Grand Island, N.Y.) and centrifuged at 500×g for 5 min. The cells were resuspended in 10 ml optiMEM and the centrifugation step was repeated. Cells were then resuspended in 1 ml optiMEM and counted using a Countess automated cell counter (Life Technologies, Grand Island, N.Y.). Cells were added to a white, flat bottom, low-volume, tissue culture-treated 384 well plate (PerkinElmer, Shelton, Conn.) at a final density of 2500 cells/well. The plate was centrifuged for 1 min at 100×g and incubated in a 37° C. humidified incubator for 1 h. […] Following this incubation A23187 (Sigma-Aldrich, St. Louis, Mo.) (3 μM final concentration) containing 3-isobutyl-1-methylxanthine (Sigma-Aldrich, St. Louis, Mo.) (0.5 mM final concentration) was added. The plate was centrifuged for 1 min at 100×g and incubated at room temperature for 1 h. Cyclic AMP accumulation was measured using Cisbio's dynamic 2 kit (Cisbio Bioassays, Bedford, Mass.) according to the manufacturer's instructions. Plates were analyzed for fluorescent emissions at 620 nm and 665 nm using 330 nm as the excitation wavelength in a Cytation 3 Cell Imaging Multi-Mode Reader (Biotek, Winooski, Vt.), and ratiometric analysis was carried out by dividing the 665 nm emissions by the 620 nm emissions to extrapolate the cAMP concentrations from a cAMP standard curve. The data represent the average of at least three independent experiments ran in duplicate.

T1 sequence (Q08828 whole entry): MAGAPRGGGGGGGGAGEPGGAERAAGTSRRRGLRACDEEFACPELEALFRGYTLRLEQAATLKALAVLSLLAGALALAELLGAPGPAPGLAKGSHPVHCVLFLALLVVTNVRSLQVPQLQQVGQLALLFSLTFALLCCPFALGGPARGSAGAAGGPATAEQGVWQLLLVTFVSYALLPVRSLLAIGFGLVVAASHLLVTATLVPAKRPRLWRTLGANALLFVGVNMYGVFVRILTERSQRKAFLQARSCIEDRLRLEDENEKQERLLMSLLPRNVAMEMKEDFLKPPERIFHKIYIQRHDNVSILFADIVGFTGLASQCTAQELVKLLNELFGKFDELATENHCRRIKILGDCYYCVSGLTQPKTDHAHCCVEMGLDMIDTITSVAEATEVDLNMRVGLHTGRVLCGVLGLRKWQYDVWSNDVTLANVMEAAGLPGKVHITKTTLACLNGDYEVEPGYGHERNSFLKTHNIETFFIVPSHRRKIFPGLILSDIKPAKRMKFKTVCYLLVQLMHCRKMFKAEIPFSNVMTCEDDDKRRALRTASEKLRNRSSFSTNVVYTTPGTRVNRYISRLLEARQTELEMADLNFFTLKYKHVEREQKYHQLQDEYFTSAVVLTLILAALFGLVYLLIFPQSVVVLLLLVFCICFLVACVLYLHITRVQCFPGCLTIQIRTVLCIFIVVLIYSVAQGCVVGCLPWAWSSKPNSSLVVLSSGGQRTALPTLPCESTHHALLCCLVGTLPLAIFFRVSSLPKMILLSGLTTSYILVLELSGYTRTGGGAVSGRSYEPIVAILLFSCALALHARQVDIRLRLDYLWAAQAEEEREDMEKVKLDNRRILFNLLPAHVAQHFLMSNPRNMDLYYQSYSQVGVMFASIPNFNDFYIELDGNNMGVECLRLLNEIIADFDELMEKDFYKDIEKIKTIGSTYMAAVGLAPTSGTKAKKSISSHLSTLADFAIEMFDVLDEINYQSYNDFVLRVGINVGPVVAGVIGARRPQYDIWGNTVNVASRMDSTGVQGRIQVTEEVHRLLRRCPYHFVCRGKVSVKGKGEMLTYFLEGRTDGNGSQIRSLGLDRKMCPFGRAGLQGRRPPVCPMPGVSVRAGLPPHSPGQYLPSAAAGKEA

inhibition at 4 µM | inhibition at 40 µM | SMILES | IC50
4% | 83% | CN(C/C=C/c1ccccc1)Cc1cccc2ccccc12 [Compound 1, (E)-N-methyl-N-(naphthalen-1-ylmethyl)-3-phenylprop-2-en-1-amine, reference compound] | –
35% | 97% | Fc1ccc(C(c2ccc(F)cc2)N2CCN(C/C=C/c3ccccc3)CC2)cc1 [Compound 3, 1-(bis(4-fluorophenyl)methyl)-4-cinnamylpiperazine, reference compound] | –
57% | 96% | Brc1ccc(/C=C/CN(CCc2c[nH]c3ccccc23)Cc2ccccc2)cc1 [Compound 7ag, (E)-N-(2-(1H-indol-3-yl)ethyl)-N-benzyl-3-(4-bromophenyl)prop-2-en-1-amine] | 6.91 µM
39% | 86% | C(=C\c1ccccc1)/CN(CCc1c[nH]c2ccccc12)Cc1cccc2ccccc12 [Compound 7c, (E)-N-(2-(1H-indol-3-yl)ethyl)-N-(naphthalen-1-ylmethyl)-3-phenylprop-2-en-1-amine] | 8.95 µM
-8% | 101% | Cn1cc(CCN(C/C=C/c2ccccc2)Cc2ccccc2)c2ccccc21 [Compound 7d, (E)-N-benzyl-N-(2-(1-methyl-1H-indol-3-yl)ethyl)-3-phenylprop-2-en-1-amine] | –
-9% | 75% | C(=C\c1ccccc1)/CN(Cc1ccccc1)Cc1ccccc1 [Compound 7e, (E)-N,N-dibenzyl-3-phenylprop-2-en-1-amine] | –
-26% | 95% | Cc1ccc(/C=C/CN(C)Cc2cccc3ccccc23)cc1 [Compound 7fa, (E)-N-methyl-N-(naphthalen-1-ylmethyl)-3-p-tolylprop-2-en-1-amine] | –
2% | 63% | Cc1cccc(/C=C/CN(C)Cc2cccc3ccccc23)c1 [Compound 7fb, (E)-N-methyl-N-(naphthalen-1-ylmethyl)-3-m-tolylprop-2-en-1-amine] | –
-71% | 77% | Cc1ccccc1/C=C/CN(C)Cc1cccc2ccccc12 [Compound 7fc, (E)-N-methyl-N-(naphthalen-1-ylmethyl)-3-o-tolylprop-2-en-1-amine] | –
11% | 94% | CN(C/C=C/c1ccc(I)cc1)Cc1cccc2ccccc12 [Compound 7fd, (E)-3-(4-iodophenyl)-N-methyl-N-(naphthalen-1-ylmethyl)prop-2-en-1-amine] | –
4% | 85% | CN(C/C=C/c1ccc(F)cc1)Cc1cccc2ccccc12 [Compound 7fe, (E)-3-(4-fluorophenyl)-N-methyl-N-(naphthalen-1-ylmethyl)prop-2-en-1-amine] | –
37% | 91% | CN(C/C=C/c1ccc(Cl)cc1)Cc1cccc2ccccc12 [Compound 7ff, (E)-3-(4-chlorophenyl)-N-methyl-N-(naphthalen-1-ylmethyl)prop-2-en-1-amine] | –
-61% | 93% | CN(C/C=C/c1ccc(Br)cc1)Cc1cccc2ccccc12 [Compound 7fg, (E)-3-(4-bromophenyl)-N-methyl-N-(naphthalen-1-ylmethyl)prop-2-en-1-amine] | –
30% | 87% | CN(C/C=C/c1ccc(C(F)(F)F)cc1)Cc1cccc2ccccc12 [Compound 7fh, (E)-N-methyl-N-(naphthalen-1-ylmethyl)-3-(4-(trifluoromethyl)phenyl)prop-2-en-1-amine] | –
-40% | 85% | CCOC(=O)c1ccc(/C=C/CN(C)Cc2cccc3ccccc23)cc1 [Compound 7fi, (E)-ethyl 4-(3-(methyl(naphthalen-1-ylmethyl)amino)prop-1-enyl)benzoate] | –
-14% | 82% | COc1ccc(/C=C/CN(C)Cc2cccc3ccccc23)cc1 [Compound 7fj, (E)-3-(4-methoxyphenyl)-N-methyl-N-(naphthalen-1-ylmethyl)prop-2-en-1-amine] | –
-14% | 33% | COc1ccc(/C=C/CN(C)Cc2cccc3ccccc23)cc1OC [Compound 7fk, (E)-3-(3,4-dimethoxyphenyl)-N-methyl-N-(naphthalen-1-ylmethyl)prop-2-en-1-amine] | –
-28% | 62% | CN(C/C=C/c1cccc([N+](=O)[O-])c1)Cc1cccc2ccccc12 [Compound 7fl, (E)-N-methyl-N-(naphthalen-1-ylmethyl)-3-(3-nitrophenyl)prop-2-en-1-amine] | –
20% | 67% | COC(=O)CCCN(C/C=C/c1ccccc1)Cc1ccc(F)cc1 [Compound 7ga, methyl 4-(cinnamyl(4-fluorobenzyl)amino)butanoate] | –
-3% | 64% | COC(=O)CCCN(C/C=C/c1ccc(C)cc1)Cc1ccc(F)cc1 [Compound 7gb, (E)-methyl 4-((4-fluorobenzyl)(3-p-tolylallyl)amino)butanoate] | –

SMILES | inhibition at 4 µM | inhibition at 40 µM | IC50
C(=C\c1ccccc1)/CN(CCc1c[nH]c2ccccc12)Cc1ccccc1 [Compound 7aa, (E)-N-(2-(1H-indol-3-yl)ethyl)-N-benzyl-3-phenylprop-2-en-1-amine] | 41% | 92% | 9.92 µM
Cc1ccc(/C=C/CN(CCc2c[nH]c3ccccc23)Cc2ccccc2)cc1 [Compound 7ab, (E)-N-(2-(1H-indol-3-yl)ethyl)-N-benzyl-3-p-tolylprop-2-en-1-amine] | 20% | 91% | –
Cc1cccc(/C=C/CN(CCc2c[nH]c3ccccc23)Cc2ccccc2)c1 [Compound 7ac, (E)-N-(2-(1H-indol-3-yl)ethyl)-N-benzyl-3-m-tolylprop-2-en-1-amine] | 18% | 93% | –
Ic1ccc(/C=C/CN(CCc2c[nH]c3ccccc23)Cc2ccccc2)cc1 [Compound 7ad, (E)-N-(2-(1H-indol-3-yl)ethyl)-N-benzyl-3-(4-iodophenyl)prop-2-en-1-amine] | 59% | 93% | 10.2 µM
Fc1ccc(/C=C/CN(CCc2c[nH]c3ccccc23)Cc2ccccc2)cc1 [Compound 7ae, (E)-N-(2-(1H-indol-3-yl)ethyl)-N-benzyl-3-(4-fluorophenyl)prop-2-en-1-amine] | 47% | 91% | 12.9 µM
Clc1ccc(/C=C/CN(CCc2c[nH]c3ccccc23)Cc2ccccc2)cc1 [Compound 7af, (E)-N-(2-(1H-indol-3-yl)ethyl)-N-benzyl-3-(4-chlorophenyl)prop-2-en-1-amine] | 30% | 98% | –
FC(F)(F)c1ccc(/C=C/CN(CCc2c[nH]c3ccccc23)Cc2ccccc2)cc1 [Compound 7ah, (E)-N-(2-(1H-indol-3-yl)ethyl)-N-benzyl-3-(4-(trifluoromethyl)phenyl)prop-2-en-1-amine] | 24% | 96% | –
CCOC(=O)c1ccc(/C=C/CN(CCc2c[nH]c3ccccc23)Cc2ccccc2)cc1 [Compound 7ai, (E)-ethyl 4-(3-((2-(1H-indol-3-yl)ethyl)(benzyl)amino)prop-1-enyl)benzoate] | 36% | 99% | –
COc1ccc(CN(C/C=C/c2ccccc2)CCc2c[nH]c3ccccc23)cc1 [Compound 7ba, (E)-N-(2-(1H-indol-3-yl)ethyl)-N-(4-methoxybenzyl)-3-phenylprop-2-en-1-amine] | 34% | 98% | –
Fc1ccc(CN(C/C=C/c2ccccc2)CCc2c[nH]c3ccccc23)cc1 [Compound 7bb, (E)-N-(2-(1H-indol-3-yl)ethyl)-N-(4-fluorobenzyl)-3-phenylprop-2-en-1-amine] | 31% | 96% | –
O=[N+]([O-])c1ccc(CN(C/C=C/c2ccccc2)CCc2c[nH]c3ccccc23)cc1 [Compound 7bc, (E)-N-(2-(1H-indol-3-yl)ethyl)-N-(4-nitrobenzyl)-3-phenylprop-2-en-1-amine] | 29% | 88% | –
